Earlier results on four molecules are cited in US20070020218A1, “Composition and method for the treatment of psoriasis” (priority 2005, published 2007).

In data set [1] the test system is osteoarthritis of the knee. The note with it: after 4 weeks, 252 people.
The test system of data set [2] is knee osteoarthritis. The note with it: for persistence of benefits after treatment was stopped: followed for an additional 60 days after the 90 days of treatment; for reduction of symptoms: over 90 days of treatment.
Data set [3] concerns degenerative arthritis. The note with it: 2,250 mg daily for six weeks.
The conditions of data set [4]: oral.
Data set [5] concerns arthritis of the knee. As to conditions: 12 months, 104 individuals.
Data set [6] deals with osteoarthritis of the knee. The note with it: 85 people with osteoarthritis of the knee.

In the case of `N[C@H]1C(O)O[C@H](CO)[C@@H](O)[C@@H]1O.O=S(=O)(O)O` (stereo partly drawn) [glucosamine sulfate], the “pain and movement against placebo” value in data set [1] was “significantly reduced pain and improved movement”. In data set [2], the “persistence of benefits after treatment was stopped” value is on record as “lasted for the full 60 days” and the reduction of symptoms entry is given as “equally effective”.
On to `CN1C(C(=O)Nc2ccccn2)=C(O)c2ccccc2S1(=O)=O` [piroxicam, reference compound], for which, in data set [2], the “persistence of benefits after treatment was stopped” value was “rapidly disappeared” and the reduction of symptoms result is “equally effective”.
`CS(C)(=O)=O` [MSM, Methylsulfonyl methane]: the “reduction in pain on average” value in data set [3] was 82%.
On to chondroitin sulfate, for which the chondroitin absorbed intact result in data set [4] was “up to 15%”. For the same molecule, the “trial outcome against placebo” value in data set [5] was “Good results”. For the same molecule, the “participants with improved results” value in data set [6] is 69%.
